Biological target: T1, Bex1 (recombinant Bex1 protein) (Mus musculus, UniProt Q9R224)
T1 construct: N-terminal hexahistidine tag (pETDuet-1), expressed in E. coli Rosetta-gami 2(DE3)pLysS, non-denaturing Ni-NTA purification, 15N-labelled; tag removal not mentioned
T1 sequence (Q9R224 1-128): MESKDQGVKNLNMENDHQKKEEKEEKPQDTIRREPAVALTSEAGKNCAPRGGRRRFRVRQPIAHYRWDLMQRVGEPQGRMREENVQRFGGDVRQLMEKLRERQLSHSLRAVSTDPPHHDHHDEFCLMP
Assay: 2D 1H-15N HSQC NMR titration (chemical shift perturbation)
Type: binding
From the text: 2D 1H-15N HSQC NMR titration (chemical shift perturbation) on Bex1 (recombinant Bex1 protein) | The peak shift of Bex1 was GTP concentration-dependent with the dissociation constant (Kd) equal to […]

Kd: 244 ± 98 µM
SMILES: Nc1nc2c(ncn2[C@@H]2O[C@H](COP(=O)(O)OP(=O)(O)OP(=O)(O)O)[C@@H](O)[C@H]2O)c(=O)[nH]1 [GTP]
